Measured values taken from patent US20160263150A1, “TUNING BIOLOGICAL SYSTEM PROPERTIES FOR OPTIMIZED TREATMENT EFFICACY” (Baylor College of Medicine, priority 2015, published 2016).

Experiments:
Type in all cases: physicochemical
[1] = RF heating of kosmotropic materials in PBS (Example 2); settings: 342 mg/mL in PBS
Description: Kosmotropic material solutions in phosphate buffered saline (PBS) were prepared using concentrated PBS to maintain equal ion concentration in all solutions. Kosmotropic materials (sucrose, maltose, trehalose, glycerol, propylene glycol, ethylene glycol) and all salts were obtained from Sigma-Aldrich in high purity (>98%) and used as received.
A variable power Kanzius External RF system (13.56 MHz) Generator System (ThermMed, LLC, Erie, Pa.) was used to heat aqueous solutions and tissue samples. A high-voltage RF field is generated in the 8 cm air gap between the transmitting and receiving heads of the RF-field generator. For aqueous experiments, samples were placed in a 1.3 mL quartz cuvette on a nonconducting Teflon holder mounted on an adjustable rotary stage at ambient temperature and open to air. […] Sample temperatures were recorded using an infrared camera (FLIR SC 6000, FLIR Systems, Inc., Boston, Mass.) approximately every 0.17 seconds. […] Heating rates were calculated by fitting a linear regression to the temperature versus time plot of each sample for the duration of RF exposure or only for the first five seconds of RF exposure. The latter methodology allows for the assumption that the dielectric properties remain approximately constant in the time frame analyzed, as discussed herein. […]

[2] = RF-induced heating of m-/s-SWNT suspensions in NaCl solutions; settings: with 2% w/v Pluronic F108
Description: Once characterized, these m-/s-SWNT samples were then exposed to a high-intensity (˜90 kV/m) 13.56 MHz RF electric field. […] Approximately 1.3 mL of each sample was placed in a cylindrical quartz cuvette (˜1 cm height by ˜1 cm diameter) and exposed to the RF field for 120 seconds or until the temperature reached 70° C. to prevent electrical arcing. Thermal imaging data was captured using an FLIR SC 600 infrared camera. Videos were also recorded simultaneously using a Nikon SLR camera. Once the samples had been exposed, the SWNTs were removed from solution using a 100 KDa filter to collect the supernatant, which was then re-exposed to the RF field. The differential heating rates determined heat production from the SWNTs themselves and not the Pluronic F108/NaCl background.
Using the highest SWNT concentration of 100 mg/L, Applicants then sought to investigate SWNT heating rates versus host medium conductivity, which was modulated using NaCl solutions. Aqueous NaCl solutions (all with 2% w/v Pluronic F108) across the molarity range 10^4 to 10^3 mM were combined with m-/s-SWNTs at a concentration of 100 mg/L. These were then exposed to the RF field and filtered to remove the supernatant, which was then re-exposed.

[3] = RF heating rate and conductivity of bovine blood mixed with additives; settings: for effect of addition on blood conductivity and heating rate: 1-20% by weight in bovine blood; for additive content from which a significant increase in blood heating rate (p<0.005) was observed: by weight in bovine blood with 2-3% EDTA
Description: In a similar study, various additives were added to bovine blood containing 2-3% ethylenediamine tetraacetic acid (EDTA) to prevent coagulation. The additives tested were propylene glycol, glycerol, pure water and normal saline at concentrations of 1-20% by weight.
A variable power RF (13.56 MHz) Generator System (ThermMed, LLC, Erie, Pa.) was used to heat aqueous solutions. A high-voltage RF field is generated in the 8 cm air gap between the transmitting and receiving heads of the RF field generator. For aqueous experiments, samples were placed in a 1.3 mL quartz cuvette on a non-conducting Teflon holder mounted on an adjustable rotary stage at ambient temperature and open to air. The cuvette was placed 8 mm from the transmitting head of the RF field generator and exposed to the high-voltage RF field at 100 or 900 W generator power. Sample temperatures were recorded using an infrared camera (FLIR SC 6000, FLIR Systems, Inc., Boston, Mass.) approximately every 0.17 s. At both 100 W and 900 W, samples were heated from ambient temperature (i.e., ˜23° C.) to 27° C. or for a duration of 60 seconds, whichever occurred first. Heating rates were calculated by fitting a linear regression to the temperature versus time plot of each sample for the duration of RF exposure.
Previous experiments involved conductivity modulation of PBS, a biologically relevant aqueous solution commonly used in laboratory settings. […] Blood samples contained 2-3% ethylenediamine tetraacetic acid (EDTA) to prevent coagulation. A number of additives, including water, normal saline, propylene glycol and glycerol were mixed with blood at increasing weight percent content (1-20%).

[4] = RF (13.56 MHz) heating rate of kosmotropic materials dissolved in PBS, 100 W; settings: 500 mg/m in PBS
Description: Sample temperature was measured using an infrared camera. The heating rates were calculated by a least-squares linear regression of the resultant temperature-time plot (FIG. 2B). Samples were heated from 23° C. to either 27° C. or for a duration of 60 seconds, whichever occurred first. Over this selected small temperature range, the variation of the temperature-dependence of dielectric properties was negligible.
The complex relative permittivity (∈′r and e″r) of all samples was measured over the frequency range of 10 MHz to 3 GHz (FIGS. 4A-B). From these measurements, the conductivity was obtained using the relationship σ=ω∈D∈″r. […]
Each of the materials listed in FIG. 5A were dissolved at 100, 250, and 500 mg/mL in phosphate buffered saline (PBS), a biologically iso-osmolar solution with similar conductivity (1.15 S/m) to blood and body tissues. […] RF heating rates and conductivity were measured according to the procedure described in Examples 1.1 and 1.2. […]
A variable power RF (13.56 MHz) Generator System (ThermMed, LLC, Erie, Pa.) was used to heat aqueous solutions. […] Sample temperatures were recorded using an infrared camera (FLIR SC 6000, FLIR Systems, Inc., Boston, Mass.) approximately every 0.17 s. […] Heating rates were calculated by fitting a linear regression to the temperature versus time plot of each sample for the duration of RF exposure.

[5] = RF heating of neat ethanol and oils, 900 W
Description: A variable power Kanzius External RF system (13.56 MHz) Generator System (ThermMed, LLC, Erie, Pa.) was used to heat aqueous solutions and tissue samples. A high-voltage RF field is generated in the 8 cm air gap between the transmitting and receiving heads of the RF-field generator. For aqueous experiments, samples were placed in a 1.3 mL quartz cuvette on a nonconducting Teflon holder mounted on an adjustable rotary stage at ambient temperature and open to air. The cuvette was placed 8 mm from the transmitting head of the RF-field generator and exposed to the high-voltage RF field at 900 W generator power. Sample temperatures were recorded using an infrared camera (FLIR SC 6000, FLIR Systems, Inc., Boston, Mass.) approximately every 0.17 seconds. Samples were heated from ambient temperature (i.e., ˜23° C. to ˜70° C. or for 120 seconds), whichever occurred first. Heating rates were calculated by fitting a linear regression to the temperature versus time plot of each sample for the duration of RF exposure or only for the first five seconds of RF exposure. The latter methodology allows for the assumption that the dielectric properties remain approximately constant in the time frame analyzed, as discussed herein.

PBS heating rate with kosmotropic material [1] [° C./s] | additive content from which a significant increase in blood heating rate (p<0.005) was observed [3] [%] | SMILES | effect of addition on blood conductivity and heating rate [3] | further results
0.32±0.01 |  | OC[C@H]1O[C@H](O[C@H]2[C@H](O)[C@@H](O)C(O)O[C@@H]2CO)[C@H](O)[C@@H](O)[C@@H]1O (mixture of isomers) [Maltose, maltose] |  | 
 |  | [Cl-].[Na+] [NaCl] |  | NaCl concentration at maximum heating [2]: 5 mM
 | 5 | CC(O)CO (stereo not drawn) [Propylene glycol, propylene glycol] | decrease in blood conductivity and increase in heating rate | increase of the heating rate of PBS [4]: 490%
 |  | CCO [ethanol] |  | RF heating rate of neat material [5]: 0.09 ° C./s
 | 10 | OCC(O)CO [glycerol] | decrease in blood conductivity and increase in heating rate | 
0.33±0.01 |  | OC[C@H]1O[C@H](O[C@H]2O[C@H](CO)[C@@H](O)[C@H](O)[C@H]2O)[C@H](O)[C@@H](O)[C@@H]1O [trehalose] |  | 
